Experimental data: patent publication US9790227B2, “2-methylsulphanyl-6-nitro-7-oxo-1, 2, 4-triazolo [5, 1-C] [1, 2, 4] triazinide L-arginine dihydrate active toward west nile virus” (LIMITED LIABILITY COMPANY “URAL CENTER OF BIOPHARMACEUTICAL …, priority 2013, dated 2017)

What was measured:
West Nile virus = assay: Effectiveness in cell culture GMK-AH (1D) against West Nile virus; assay type: cell-based
Procedure: Monolayer of the cell culture GMK-AH (1D) was infected with West Nile virus in a dose of 0.05 PFU/cell. Virus was adsorbed at 37° C., 5% CO2, for 60 minutes. At the end of the incubation, the monolayer was washed three times with maintenance medium containing 100 u/ml penicillin and streptomycin to remove non-adsorbed virus, and test compounds were added at a concentration of ½ MIC. The substance was dissolved in maintenance medium to the desired concentration. For each compound, not less than 10 tubes with a monolayer of cells were used. Incubation was performed at 37° C., 5% CO2 for 48 hours. Next, the cryodestruction of cells was performed and the samples were combined. The infectious titer in the combined samples was determined by titration by forming negative colonies under the agar coating in the cell culture GMK-AH (1D).

cell culture GMK-AH (1D) = assay: Evaluation of cytotoxicity in cell culture GMK-AH (1D); assay type: cell-based
Procedure: Evaluation of the cytotoxicity of the test compound using a constant cell culture GMK-AH (1D).
To form a continuous monolayer, 1 ml of cell suspension with a density of 200 thousand/ml was added into each tubes and incubate at a temperature (37.0±0.5)° C., 5% CO2.
Then the growth medium was removed and fresh medium containing various concentrations of test drugs (from 1000 to 6.25 µg/ml) was added. The tubes were then incubated for 5 days at a temperature (37.0+0.5)° C., 5% CO2.
Using a light microscope, the state of the monolayer cells was observed: partial or complete destruction of the monolayer cells, damage to individual cells, cell syncytium formation. Control samples were tubes with a monolayer, which included maintenance medium without a drug.

[1] = 250.0 μg/ml (½ MIC), GMK-AH (1D), 0.05 PFU/cell, 48 hours
[2] = cytotoxicity, GMK-AH (1D), 5 days

CSc1nc2[nH]nc([N+](=O)[O-])c(=O)n2n1 [Claimed compound, 2-methylsulfanyl-6-nitro-7-oxo-1,2,4-triazolo[5,1-c] [1,2,4]triazinid L-arginine dihydrate]
Level of the virus accumulation (West Nile virus; [1]): 4.2 lg PFU/ml | Reduction of the virus accumulation (West Nile virus; [1]): 2.3 lg PFU/ml | inhibiting factor (West Nile virus; Table 2, GMK-AH (1D)): 99.5% | inhibits the reproduction of West Nile virus (West Nile virus; Table 2, GMK-AH (1D)): 2.31 g | antiviral activity in vitro against West Nile virus (West Nile virus; concluding statement): significant antiviral activity | The frequency of the cytopathic effect of the claimed compound (cell culture GMK-AH (1D); concentration 7.8 mg/mL, GMK-AH (1D), 5 days): 0/4 | The frequency of the cytopathic effect of the claimed compound (cell culture GMK-AH (1D); concentration 15.5 mg/mL, GMK-AH (1D), 5 days): 0/4 | The frequency of the cytopathic effect of the claimed compound (cell culture GMK-AH (1D); concentration 31.3 mg/mL, GMK-AH (1D), 5 days): 0/4 | The frequency of the cytopathic effect of the claimed compound (cell culture GMK-AH (1D); concentration 62.5 mg/mL, GMK-AH (1D), 5 days): 0/4 | The frequency of the cytopathic effect of the claimed compound (cell culture GMK-AH (1D); concentration 250.0 mg/mL, GMK-AH (1D), 5 days): 0/4 | The frequency of the cytopathic effect of the claimed compound (cell culture GMK-AH (1D); concentration 500.0 mg/mL, GMK-AH (1D), 5 days): 0/4 | The frequency of the cytopathic effect of the claimed compound (cell culture GMK-AH (1D); concentration 1000.0 mg/mL, GMK-AH (1D), 5 days): 2/4 | The frequency of the cytopathic effect of the claimed compound (cell culture GMK-AH (1D); concentration 125,0 mg/mL, GMK-AH (1D), 5 days): 0/4 | visible changes in the cell culture (cell culture GMK-AH (1D); concentration of 500 μg/ml, GMK-AH (1D)): did not cause any visible changes | toxicity in the concentrations used (cell culture GMK-AH (1D); concluding statement): nontoxic | ½ MIC (cell culture GMK-AH (1D); cytotoxicity, GMK-AH (1D)): 250.0 µg/mL | MIC (cell culture GMK-AH (1D); [2]): 500.0 µg/mL | cytotoxic concentration (cell culture GMK-AH (1D); [2]): 1000.0 µg/mL
